Measurements taken from patent publication US20090318351A1, “METHOD OF TREATING ACUTE ST-ELEVATION MYOCARDIAL INFARCTION WITH A DELTA PKC ANTAGONIST” (priority 2008, published 2009).
“Also recorded” adds a separate entry of the source. Ends that are not written are not given here.

Legend:
[1] = Effect of D-peptides on plasma stability of KAI-9706; details: All-L, All-D, scrambled or retro-inverso (R/I) carrier and cargo
Protocol: KAI-9706 was engineered with D-amino acids to determine their impact on peptide composition stability. Unmodified KAI-9706 was compared to a peptide composition with the same amino acid sequence, however the amino acids used were d-enantiomers instead of 1-amino acids. A retro-inverso version and a scrambled version of the peptide composition were also prepared.

[2] = Plasma stability of capped peptides (KAI-9706 modified at amino and carboxy termini); details: rat
Protocol: Plasma stability of capped peptides was compared. KAI-9706 was modified step-wise at its amino and carboxy termini. Plasma stability as measured by the percent of peptide composition remaining after 15 minutes.

[3] = Stability of linear versus disulfide linked peptides in PBS solution; assay type: physicochemical; details: conditions described in Example 15 (so in the source), FIGS. 8, 9 and 15
Protocol: The peptides were placed in solution at 0.1 mg/ml in PBS (pH 7.4) at 37° C.
Linear and disulfide bond linked versions of PKC-βI and PKC-βII peptide compositions were incubated under the conditions described in Example 15.
In particular, the Asn residues at position 7 of the β-I and β-II peptides and the Gln at position 2 of the β-II peptide. These linear peptide compositions were modified by substituting the Gly immediately C-terminal to the Asn with either Leu in the β-I peptide composition or Gly to Ile in the β-II peptide composition. The Gln at position 2 of the β-II peptide composition was also substituted with a Glu residue. The stability of the peptides was studied under the conditions described in Example 15.

[4] = 100 μg/ml, room temperature, LC/MS
Protocol: The effect of N-terminal acetylation and C-terminal amidation on compound stability in plasma and serum from rat and human was studied. The compounds were tested in the plasma/serum at a concentration of 100 μg/ml. The solutions were incubated at room temperature, precipitated with 5% TCA, and then the supernatant was neutralized with ammonium acetate. The peptides were then analyzed by LC/MS.

rat heart = assay: Rat heart model (Langendorff assay) of ischemic damage, CK release; details: Langendorff in vitro post-ischemia model, 10 minutes perfusion, FIG. 16
Protocol: The ability of the capped composition to inhibit ischemic damage in a rat heat model (Langendorff Assay) was evaluated versus the uncapped form.

| Compound | stability in solution of PKC-βI and PKC-βII peptide compositions [3] | stability in human serum [4] | also measured |
| --- | --- | --- | --- |
| CC[C@H](C)[C@H](NC(=O)[C@@H]1CCCN1C(=O)[C@H](C)NC(=O)[C@H](CC(=O)O)NC(=O)[C@H](Cc1c[nH]cn1)NC(=O)[C@@H](N)CSSC[C@H](N)C(=O)N[C@@H](Cc1ccc(O)cc1)C(=O)NCC(=O)N[C@@H](CCCNC(=N)N)C(=O)N[C@@H](CCCCN)C(=O)N[C@@H](CCCCN)C(=O)N[C@@H](CCCNC(=N)N)C(=O)N[C@@H](CCCNC(=N)N)C(=O)N[C@@H](CCC(N)=O)C(=O)N[C@@H](CCCNC(=N)N)C(=O)N[C@@H](CCCNC(=N)N)C(=O)N[C@@H](CCCNC(=N)N)C(=O)O)C(=O)NCC(=O)N[C@@H](Cc1ccc(O)cc1)C(=O)N[C@@H](CC(=O)O)C(=O)O [KAI-9706] |  |  | % parent remaining at 15 mins [1]: 1%; remaining at 0.25 h [2]: 1% |
| Ac-GEEVIRNISGYGRKKRRQRRR-NH2 [modified linear β-II peptide composition] | served to stabilize; also recorded: improved stability |  |  |
| EAVSLKPTGGYGRKKRRQRRR-NH2 [KP-1633] |  | increased stability |  |
| Ac-EAVSLKPTGGYGRKKRRQRRR-NH2 [KP-1678] |  | increased stability |  |
| KAI-1355: truncated version of KAI-9803 in which the carboxy terminal leucine was removed; cargo CSFNSYELGS |  |  | potency in protecting cardiac tissue from ischemia (creatine kinase release) (rat heart): potency comparable to that of the full length KAI-9803 |
| Ac-GKLFIMNLSGYGRKKRRQRRR-NH2 [modified linear β-I peptide composition] | served to stabilize; also recorded: stabilized |  |  |
